Laboratory results as given in ChEMBL document CHEMBL5523667, “Blood-stage antimalarial activity, favourable metabolic stability and in vivo toxicity of novel piperazine linked 7-chloroquinoline-triazole conjugates” (Eur J Med Chem, 2024).
Calls of active or inactive are those of the source. The calls are words filed in the database; no cut-off is given here.

What was measured:
[1] = tested on: Hemozoin; test: Inhibition of beta-hematin formation in Plasmodium falciparum by UV-visible SpectraMax P340 plate reader analysis
[2] = tested on: Plasmodium falciparum; test: Antimalarial activity against chloroquine-sensitive Plasmodium falciparum NF54 assessed as inhibition of parasite growth by lactate dehydrogenase assay; format: functional, organism-based
[3] = tested on: Plasmodium falciparum; test: Antimalarial activity against chloroquine-sensitive Plasmodium falciparum 3D7 assessed as growth inhibition at 1 to 2 uM; format: functional, organism-based; conditions: dose 1-2 µM
[4] = tested on: Plasmodium falciparum; test: Resistance index, ratio of IC50 for antimalarial activity against chloroquine-resistant Plasmodium falciparum K1 to IC50 for antimalarial activity against chloroquine-sensitive Plasmodium falciparum NF54; format: functional
[5] = tested on: Plasmodium falciparum; test: Antimalarial activity against chloroquine-resistant Plasmodium falciparum K1 assessed as inhibition of parasite growth by lactate dehydrogenase assay; format: functional, organism-based
[6] = Cytotoxicity against CHO cells assessed as reduction in cell viability by MTT assay; format: toxicity, cell-based; conditions: Chinese hamster (Cricetulus griseus)
[7] = Selectivity index, ratio of IC50 for cytotoxicity against CHO cells to IC50 for antimalarial activity against chloroquine-sensitive Plasmodium falciparum NF54; format: toxicity, cell-based; conditions: hamster, CHO cells versus Plasmodium falciparum NF54; read-out: Ratio IC50
[8] = tested on: Plasmodium falciparum; test: Antimalarial activity against synchronized ring stage Plasmodium falciparum assessed as accumulation of free heme at 25 to 100 nM incubated for 20 hrs by absorbance based analysis; format: functional, organism-based; conditions: dose 25-100 nM
[9] = tested on: Plasmodium falciparum; test: Antimalarial activity against synchronized ring stage Plasmodium falciparum assessed as reduction in hemozoin level at 25 to 100 nM incubated for 20 hrs by absorbance based analysis; format: functional, organism-based; conditions: dose 25-100 nM
[10] = tested on: Plasmodium falciparum; test: Antimalarial activity against chloroquine-sensitive Plasmodium falciparum 3D7 assessed as growth inhibition at 1 uM relative to control; format: functional; design: scale not given: the % may be the effect or the level left
[11] = biological target: T1, Falcipain 2 (Plasmodium falciparum, UniProt Q9N6S8); test: Binding affinity to N-terminal 6His-tagged recombinant Plasmodium falciparum FP2 expressed in Escherichia coli M15 assessed as dissociation constant incubated for 15 mins in presence of lysine reactive dye by microscale thermophoretic analysis
T1 sequence (Q9N6S8 whole entry): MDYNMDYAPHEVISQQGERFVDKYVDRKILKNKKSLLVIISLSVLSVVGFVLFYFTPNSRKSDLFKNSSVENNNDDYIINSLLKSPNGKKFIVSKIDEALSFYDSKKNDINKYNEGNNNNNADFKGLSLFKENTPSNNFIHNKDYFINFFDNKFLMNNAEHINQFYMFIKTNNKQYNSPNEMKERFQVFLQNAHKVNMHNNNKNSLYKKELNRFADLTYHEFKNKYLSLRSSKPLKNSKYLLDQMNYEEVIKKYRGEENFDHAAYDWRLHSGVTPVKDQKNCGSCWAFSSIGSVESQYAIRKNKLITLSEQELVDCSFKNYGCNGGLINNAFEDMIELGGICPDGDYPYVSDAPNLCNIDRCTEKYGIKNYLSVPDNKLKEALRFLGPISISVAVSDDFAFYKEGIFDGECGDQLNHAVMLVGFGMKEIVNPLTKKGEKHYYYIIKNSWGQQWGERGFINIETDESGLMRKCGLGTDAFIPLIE

[12] = tested on: Plasmodium falciparum; test: Antimalarial activity against schizont stage Plasmodium falciparum infected in erythrocytes assessed as reduction in proteolytic activity at 5 uM pre-incubated for 1 hr followed by Z-Phe-Arg-AMC addition and measured after 5 to 10 mins by confocal microscopic analysis relative to control; format: functional, Erythrocyte; design: scale not given: the % may be the effect or the level left; conditions: time 65-70 min
[13] = tested on: Plasmodium falciparum; test: Antimalarial activity against chloroquine-sensitive Plasmodium falciparum 3D7 assessed as growth inhibition at 1 uM; format: functional, organism-based

Question: Which IC50 [1] does the source give for `O=C(Cn1cc(CN2CCN(c3ccnc4cc(Cl)ccc34)CC2)nn1)Nc1ccccc1[N+](=O)[O-]` here?
Answer: 21.4 µM

Question: And the IC50 [2]?
Answer: 2.9 µM

Question: Which Activity [3] does the source give for `O=C(OCc1cn(-c2ccnc3cc(Cl)ccc23)nn1)c1cccc([N+](=O)[O-])c1` here?
Answer: inactive

Question: Which IC50 [1] does the source give for `O=C(Cn1cc(CN2CCN(c3ccnc4cc(Cl)ccc34)CC2)nn1)Nc1ccccc1Cl` here?
Answer: 19.2 µM

Question: And the “Ratio IC50” value [4]?
Answer: 3.29

Question: What about the IC50 [2] of the same compound?
Answer: 1.79 µM

Question: What about the IC50 [5] of the same compound?
Answer: 5.9 µM

Question: And the IC50 [6]?
Answer: 126 µM

Question: And the selectivity ratio [7]?
Answer: 70.3

Question: Which Activity [3] does the source give for `COC(=O)[C@H](Cc1ccccc1)NC(=O)Cn1cc(CN2CCN(c3ccnc4cc(Cl)ccc34)CC2)nn1` here?
Answer: Active

Question: Which Activity [3] does the source give for `C[C@@H](NC(=O)Cn1cc(CN2CCN(c3ccnc4cc(Cl)ccc34)CC2)nn1)C(=O)O` here?
Answer: inactive

Question: With `CCN(CC)Cc1cc(Nc2ccnc3cc(Cl)ccc23)ccc1O` [AMODIAQUINE] as the compound, how does the IC50 [1] read?
Answer: 10.9 µM

Question: With `CCN(CC)CCCC(C)Nc1ccnc2cc(Cl)ccc12` (configuration not stated) [CHLOROQUINE] as the compound, how does the IC50 [1] read?
Answer: 23.3 µM

Question: And the Activity [8]?
Answer: Active

Question: What about the Activity [9] of the same compound?
Answer: Active

Question: For `O=[N+]([O-])c1cccc(-n2cc(CN3CCN(c4ccnc5cc(Cl)ccc45)CC3)nn2)c1`, which Activity [10] is on record?
Answer: >50%

Question: What does the source list for `Cc1cccc(NC(=O)Cn2cc(CN3CCN(c4ccnc5cc(Cl)ccc45)CC3)nn2)c1`?
Answer: IC50 [1]: 17.2 µM; IC50 [2]: 3.5 µM

Question: Which IC50 [1] does the source give for `COc1cccc(NC(=O)Cn2cc(CN3CCN(c4ccnc5cc(Cl)ccc45)CC3)nn2)c1` here?
Answer: 17.4 µM

Question: And the IC50 [2]?
Answer: 3.56 µM

Question: Which Activity [3] does the source give for `COC(=O)[C@H](C)NC(=O)Cn1cc(COc2cccc3ccccc23)nn1` here?
Answer: Active

Question: For `O=C(Cn1cc(CN2CCN(c3ccnc4cc(Cl)ccc34)CC2)nn1)Nc1cccc(Cl)c1`, which IC50 [1] is on record?
Answer: 15.6 µM

Question: And the “Ratio IC50” value [4]?
Answer: 4.74

Question: And the IC50 [2]?
Answer: 1.83 µM

Question: And the IC50 [5]?
Answer: 8.68 µM

Question: And the IC50 [6]?
Answer: > 503 µM

Question: What about the selectivity ratio [7] of the same compound?
Answer: > 275

Question: Which Kd [11] does the source give for `CC(C)C[C@H](NC(=O)[C@H]1O[C@@H]1C(=O)O)C(=O)NCCCCN=C(N)N` [E-64] here?
Answer: 1.18 µM

Question: What about the Activity [12] of the same compound?
Answer: 100%

Question: With `Cc1ccccc1NC(=O)Cn1cc(CN2CCN(c3ccnc4cc(Cl)ccc34)CC2)nn1` as the compound, how does the IC50 [1] read?
Answer: 17.4 µM

Question: What about the IC50 [2] of the same compound?
Answer: 4.17 µM

Question: For `COC(=O)[C@H](C)NC(=O)Cn1cc(CN2CCN(c3ccnc4cc(Cl)ccc34)CC2)nn1`, which Activity [13] is on record?
Answer: Active

Question: For `COc1ccc(NC(=O)Cn2cc(CN3CCN(c4ccnc5cc(Cl)ccc45)CC3)nn2)cc1`, which IC50 [1] is on record?
Answer: 19.7 µM

Question: What about the IC50 [2] of the same compound?
Answer: 6.73 µM

Question: Which IC50 [1] does the source give for `O=C(Cn1cc(CN2CCN(c3ccnc4cc(Cl)ccc34)CC2)nn1)Nc1ccc(Br)cc1` here?
Answer: 19.4 µM

Question: What about the IC50 [2] of the same compound?
Answer: 6.45 µM

Question: Which results are given for `O=C(Cn1cc(CN2CCN(c3ccnc4cc(Cl)ccc34)CC2)nn1)Nc1cccc(F)c1`?
Answer: IC50 [1]: 10.6 µM; Ratio IC50 [4]: 1.7; IC50 [2]: 1.69 µM; IC50 [5]: 2.92 µM; IC50 [6]: 146 µM; selectivity ratio [7]: 86.5

Question: For `CCOC(=O)CNC(=O)Cn1cc(CN2CCN(c3ccnc4cc(Cl)ccc34)CC2)nn1`, which Activity [3] is on record?
Answer: Active

Question: With `Clc1ccc2c(N3CCN(Cc4cn(-c5cccc6ccccc56)nn4)CC3)ccnc2c1` as the compound, how does the Activity [3] read?
Answer: inactive

Question: For `O=C(Cn1cc(CN2CCN(c3ccnc4cc(Cl)ccc34)CC2)nn1)Nc1ccc(F)cc1`, which IC50 [1] is on record?
Answer: 20.6 µM

Question: And the “Ratio IC50” value [4]?
Answer: 1.77

Question: And the IC50 [2]?
Answer: 1.74 µM

Question: And the IC50 [5]?
Answer: 3.08 µM

Question: And the IC50 [6]?
Answer: 326 µM

Question: And the selectivity ratio [7]?
Answer: 188

Question: With `Clc1ccc2c(N3CCN(Cc4cn(-c5ccccc5Cl)nn4)CC3)ccnc2c1` as the compound, how does the Activity [10] read?
Answer: >50%

Question: Which Activity [3] does the source give for `Clc1ccc2c(N3CCN(Cc4cn(-c5ccnc6cc(Cl)ccc56)nn4)CC3)ccnc2c1` here?
Answer: Active

Question: What does the source list for `COC(=O)c1ccc(NC(=O)Cn2cc(CN3CCN(c4ccnc5cc(Cl)ccc45)CC3)nn2)cc1`?
Answer: IC50 [1]: 12.7 µM; IC50 [2]: 4.14 µM

Question: For `Clc1ccc2c(N3CCN(Cc4cn(-c5ccnc6ccccc56)nn4)CC3)ccnc2c1`, which Activity [3] is on record?
Answer: Active

Question: With `O=C(Cn1cc(CN2CCN(c3ccnc4cc(Cl)ccc34)CC2)nn1)Nc1ccccc1` as the compound, how does the IC50 [1] read?
Answer: 19.8 µM

Question: What about the IC50 [2] of the same compound?
Answer: 4.98 µM

Question: Which IC50 [1] does the source give for `O=C(Cn1cc(CN2CCN(c3ccnc4cc(Cl)ccc34)CC2)nn1)Nc1ccc(Cl)cc1` here?
Answer: 8.4 µM

Question: What about the IC50 [2] of the same compound?
Answer: 4.68 µM

Question: Which IC50 [1] does the source give for `COc1ccccc1NC(=O)Cn1cc(CN2CCN(c3ccnc4cc(Cl)ccc34)CC2)nn1` here?
Answer: 14 µM

Question: And the IC50 [2]?
Answer: 3.26 µM

Question: For `Cc1ccccc1-n1cc(CN2CCN(c3ccnc4cc(Cl)ccc34)CC2)nn1`, which Activity [10] is on record?
Answer: >50%

Question: Which results are given for `O=C(Cn1cc(CN2CCN(c3ccnc4cc(Cl)ccc34)CC2)nn1)Nc1ccc([N+](=O)[O-])cc1`?
Answer: IC50 [1]: 28.9 µM; IC50 [2]: 3.23 µM

Question: Which IC50 [1] does the source give for `Cc1ccc(NC(=O)Cn2cc(CN3CCN(c4ccnc5cc(Cl)ccc45)CC3)nn2)cc1` here?
Answer: 18.6 µM

Question: What about the “Ratio IC50” value [4] of the same compound?
Answer: 2.4

Question: What about the IC50 [2] of the same compound?
Answer: 1.8 µM

Question: What about the IC50 [5] of the same compound?
Answer: 4.37 µM

Question: What about the IC50 [6] of the same compound?
Answer: 33.8 µM

Question: What about the selectivity ratio [7] of the same compound?
Answer: 18.8

Question: With `O=C(Cn1cc(CN2CCN(c3ccnc4cc(Cl)ccc34)CC2)nn1)Nc1ccccc1F` as the compound, how does the IC50 [1] read?
Answer: 21.3 µM

Question: And the IC50 [2]?
Answer: 3.16 µM
